The source of these data is patent publication US20260022142A1, “MACROCYCLIC IMMUNOMODULATORS” (Bristol-Myers Squibb Company, priority 2022, published 2026).

Broadly, the IC50 is the concentration needed to halve the response being measured.

Numbered stars: 1 amine (or outer) side, 2 acyl side, 3 side chain; on linkers, the order of the positions; unused ones are H or OH. Bridge positions count the residues as written; N and C are the ends. Square brackets hold non-standard residues; d marks the D form. Peptide text beside a SMILES is read from it. * marks the point of attachment. ξ: configuration not given here. Phe(3-CF3) = N[C@@H](Cc1cccc(C(F)(F)F)c1)C(=O)O; Phe(4-CONH2) = NC(=O)c1ccc(C[C@H](N)C(=O)O)cc1; Phe(4-COOH) = N[C@@H](Cc1ccc(C(=O)O)cc1)C(=O)O; Bip = N[C@@H](Cc1ccc(-c2ccccc2)cc1)C(=O)O; NH(CH2)14COOH = O=C(O)CCCCCCCCCCCCCCN*; Phe(3-Me) = Cc1cccc(C[C@H](N)C(=O)O)c1; NH(CH2)12COOH = O=C(O)CCCCCCCCCCCCN*; Lys(Me2) = CN(C)CCCC[C@H](N)C(=O)O; Val(3-OH) = CC(C)(O)[C@H](N)C(=O)O; X8 = CC(C)(F)C(N[*:1])C(=O)[*:2]; 4Pal = N[C@@H](Cc1ccncc1)C(=O)O; Cha = N[C@@H](CC1CCCCC1)C(=O)O; Cit = NC(=O)NCCC[C@H](N)C(=O)O; Thr(3ξ) = CC(O)[C@H](N)C(=O)O; Dap(Me) = CNC[C@H](N)C(=O)O; 12Ado = NCCCCCCCCCCCC(=O)O; hSer = N[C@@H](CCO)C(=O)O; Carboxymethyl = O=C(O)C*; Orn = NCCC[C@H](N)C(=O)O; Aun = NCCCCCCCCCCC(=O)O; Dab = NCC[C@H](N)C(=O)O; Dap = NC[C@H](N)C(=O)O; AEEA = NCCOCCOCC(=O)O

T1 sequence (Q15116 25-288): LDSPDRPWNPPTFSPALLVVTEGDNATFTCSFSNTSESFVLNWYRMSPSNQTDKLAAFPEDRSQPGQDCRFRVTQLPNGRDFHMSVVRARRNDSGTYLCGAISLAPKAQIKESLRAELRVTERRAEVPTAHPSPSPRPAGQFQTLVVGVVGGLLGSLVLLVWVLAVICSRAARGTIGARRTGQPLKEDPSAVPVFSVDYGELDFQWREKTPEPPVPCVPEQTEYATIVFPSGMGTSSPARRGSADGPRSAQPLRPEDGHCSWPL

This assay addresses T1, PD-1/PD-L1 interaction (PE-labeled human PD-L1-Ig binding to Jurkat cell line over-expressing human PD-1) (Homo sapiens, UniProt Q15116).
T1 construct: expressed in transfected cells; host or cells: Jurkat
The assay is described as follows: Jurkat-PD-1 Cell Binding High-Content Screening Assay (CBA). The format is cell-based. Particulars: Jurkat cell line over-expressing human PD-1; PE-labeled PD-L1-Ig 20 nM final; read-out: Jurkat hPD1-PDL1 IC50. An outline of the steps:
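First, compound is added to PD-1-expressing Jurkat cells in serum-containing DMEM and left 2 h at 37° C. Next, PE-conjugated PD-L1-Ig is introduced at 20 nM final concentration for 1 hour. Finally, cells are fixed in 4% paraformaldehyde with Hoechst 33342, washed and imaged.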
For `CC[C@H](C)[C@@H]1NC(=O)[C@H](Cc2ccc(-c3ccccc3)cc2)NC(=O)[C@H](C(C)C)NC(=O)[C@H](Cc2cccc(C)c2)NC(=O)[C@H](CC(=O)O)NC(=O)[C@H](Cc2ccc(C(=O)O)cc2)NC(=O)[C@H](Cc2ccncc2)NC(=O)CSC[C@@H](C(=O)NCCOCCOCC(=O)N[C@@H](CCCCN)C(=O)NCCCCCCCCCCC(=O)O)NC(=O)[C@H]([C@@H](C)O)NC(=O)[C@H](C(C)C)NC(=O)[C@H](CC2CCCCC2)NC(=O)[C@H](CCN)NC(=O)[C@@H](CC(C)C)NC(=O)[C@H](CCCN)NC1=O` [Compound 1191] ({CH2CO}-[4Pal][Phe(4-COOH)]D[Phe(3-Me)]V[Bip]I[Orn][dL][Dab][Cha]VTC[AEEA]K[Aun]-OH; thioether N-14), the IC50 was found to be 19.7 nM. To `Cc1cccc(C[C@@H]2NC(=O)[C@H](CC(=O)O)NC(=O)[C@H](Cc3ccc(OCC(=O)O)cc3)NC(=O)[C@H](CN)NC(=O)CSC[C@@H](C(=O)N[C@@H](CCN)C(=O)NCCCCCCCCCCC(=O)O)NC(=O)[C@H](Cc3ccc(O)cc3)NC(=O)[C@H](C(C)C)NC(=O)[C@H](CC(C)C)NC(=O)[C@H](CCN)NC(=O)[C@@H](CC(C)C)NC(=O)[C@H](CCCN)NC(=O)[C@H](Cc3ccc(O)cc3)NC(=O)[C@H](Cc3ccc(-c4ccccc4)cc3)NC(=O)[C@H](CC(C)C)NC2=O)c1` [Compound 2759] ({CH2CO}-[Dap]Y(Carboxymethyl)D[Phe(3-Me)]L[Bip]Y[Orn][dL][Dab]LVYC[Dab][Aun]-OH; thioether N-14) belongs 71.1 nM. To `CNC[C@@H]1NC(=O)CSC[C@@H](C(=O)N[C@@H](CCN)C(=O)NCCOCCOCC(=O)N[C@@H](CO)C(=O)N[C@@H](CO)C(=O)N[C@@H](CO)C(=O)N[C@@H](CO)C(=O)N[C@@H](CCC(=O)NCCCCCCCCCCCCCCC(=O)O)C(=O)O)NC(=O)[C@H](Cc2cnc[nH]2)NC(=O)[C@H](C(C)(C)O)NC(=O)[C@H](CC2CCCCC2)NC(=O)[C@H](CCN)NC(=O)[C@@H](CC(C)C)NC(=O)[C@H](CCCN)NC(=O)[C@H](Cc2ccc(C(=O)O)cc2)NC(=O)[C@H](Cc2ccc(-c3ccccc3)cc2)NC(=O)[C@H](Cc2ccc(C(=O)O)cc2)NC(=O)[C@H](Cc2cccc(C(F)(F)F)c2)NC(=O)[C@H](CC(=O)O)NC(=O)[C@H](Cc2ccc(OCC(=O)O)cc2)NC1=O` [Compound 3901] ({CH2CO}-[Dap(Me)]Y(Carboxymethyl)D[Phe(3-CF3)][Phe(4-COOH)][Bip][Phe(4-COOH)][Orn][dL][Dab][Cha][Val(3-OH)]HC[Dab][AEEA]SSSSE(NH(CH2)14COOH)-OH; thioether N-14) belongs 173 nM.

Consider `Cc1cccc(C[C@@H]2NC(=O)[C@H](CC(=O)O)NC(=O)[C@H](Cc3ccc(OCC(=O)O)cc3)NC(=O)[C@H](Cc3ccncc3)NC(=O)CSC[C@@H](C(=O)N[C@@H](CCN)C(=O)NCCCCCCCCCCCCC(=O)O)NC(=O)[C@H](CO)NC(=O)[C@H](C(C)(C)O)NC(=O)[C@H](CC3CCCCC3)NC(=O)[C@H](CCN)NC(=O)[C@@H](CC(C)C)NC(=O)[C@H](CCCN)NC(=O)[C@H](Cc3ccc(OCC(=O)O)cc3)NC(=O)[C@H](Cc3ccc(-c4ccccc4)cc3)NC(=O)[C@H](Cc3ccc(OCC(=O)O)cc3)NC2=O)c1` [Compound 2224] ({CH2CO}-[4Pal]Y(Carboxymethyl)D[Phe(3-Me)]Y(Carboxymethyl)[Bip]Y(Carboxymethyl)[Orn][dL][Dab][Cha][Val(3-OH)]SC[Dab]-{NH(CH2)12COOH}; thioether N-14), for which the IC50 turned out to be 26.2 nM. Then `Cc1cccc(C[C@@H]2NC(=O)[C@H](CC(=O)O)NC(=O)[C@H](Cc3ccncc3)NC(=O)[C@H](Cc3ccc(OCC(=O)O)cc3)NC(=O)CSC[C@@H](C(=O)NCCOCCOCC(=O)N[C@@H](CCN)C(=O)NCCCCCCCCCCC(=O)O)NC(=O)[C@H]([C@@H](C)O)NC(=O)[C@H](C(C)C)NC(=O)[C@H](CC3CCCCC3)NC(=O)[C@H](CCN)NC(=O)[C@@H](CC(C)C)NC(=O)[C@H](CCCN)NC(=O)[C@H](C(C)C)NC(=O)[C@H](Cc3ccc(-c4ccccc4)cc3)NC(=O)[C@H](C(C)C)NC2=O)c1` [Compound 1170] ({CH2CO}-Y(Carboxymethyl)[4Pal]D[Phe(3-Me)]V[Bip]V[Orn][dL][Dab][Cha]VTC[AEEA][Dab][Aun]-OH; thioether N-14), with 37.9 nM; and `Cc1cccc(C[C@@H]2NC(=O)[C@H](CC(=O)O)NC(=O)[C@H](Cc3ccc(OCC(=O)O)cc3)NC(=O)[C@H](CN)NC(=O)CSC[C@@H](C(=O)NCCOCCOCC(=O)NCCCCCCCCCCC(=O)O)NC(=O)[C@H]([C@@H](C)O)NC(=O)[C@H](C(C)C)NC(=O)[C@H](CC3CCCCC3)NC(=O)[C@H](CCN)NC(=O)[C@@H](CC(C)C)NC(=O)[C@H](CCCN)NC(=O)[C@H](CCCNC(N)=O)NC(=O)[C@H](Cc3ccc(-c4ccccc4)cc3)NC(=O)[C@H](C(C)C)NC2=O)c1` [Compound 1038] ({CH2CO}-[Dap]Y(Carboxymethyl)D[Phe(3-Me)]V[Bip][Cit][Orn][dL][Dab][Cha]VTC[AEEA][Aun]-OH; thioether N-14), with 20.8 nM. Then `Cc1cccc(C[C@@H]2NC(=O)[C@H](CC(=O)O)NC(=O)[C@H](Cc3ccc(OCC(=O)O)cc3)NC(=O)[C@H](CN)NC(=O)CSC[C@@H](C(=O)N[C@@H](CCN)C(=O)NCCCCCCCCCCC(=O)O)NC(=O)[C@H](Cc3cnc[nH]3)NC(=O)[C@H](C(C)O)NC(=O)[C@H](CC3CCCCC3)NC(=O)[C@H](CCN)NC(=O)[C@@H](CC(C)C)NC(=O)[C@H](CCCN)NC(=O)[C@H](Cc3ccc(OCC(=O)O)cc3)NC(=O)[C@H](Cc3ccc(-c4ccccc4)cc3)NC(=O)[C@H](Cc3ccc(C(=O)O)cc3)NC2=O)c1` (stereo partly drawn) [Compound 3708] ({CH2CO}-[Dap]Y(Carboxymethyl)D[Phe(3-Me)][Phe(4-COOH)][Bip]Y(Carboxymethyl)[Orn][dL][Dab][Cha][Thr(3ξ)]HC[Dab][Aun]-OH; thioether N-14), with 11.4 nM; and `Cc1cccc(C[C@@H]2NC(=O)[C@H](CC(=O)O)NC(=O)[C@H](Cc3ccc(OCC(=O)O)cc3)NC(=O)[C@H](CCCNC(=N)N)NC(=O)CSC[C@@H](C(=O)N[C@@H](CCN)C(=O)NCCCCCCCCCCC(=O)O)NC(=O)[C@H]([C@@H](C)O)NC(=O)C(C(C)(C)F)NC(=O)[C@H](CC3CCCCC3)NC(=O)[C@H](CCN)NC(=O)[C@@H](CC(C)C)NC(=O)[C@H](CCCN)NC(=O)[C@H](Cc3ccc(OCC(=O)O)cc3)NC(=O)[C@H](Cc3ccc(-c4ccccc4)cc3)NC(=O)[C@H](Cc3ccc(O)cc3)NC2=O)c1` (stereo partly drawn) [Compound 2264] ({CH2CO}-RY(Carboxymethyl)D[Phe(3-Me)]Y[Bip]Y(Carboxymethyl)[Orn][dL][Dab][Cha][X8]TC[Dab][Aun]-OH; thioether N-14), with 13.1 nM. To `Cc1cccc(C[C@@H]2NC(=O)[C@H](CC(=O)O)NC(=O)[C@H](Cc3ccc(OCC(=O)O)cc3)NC(=O)[C@H](CCCCN(C)C)NC(=O)CSC[C@@H](C(=O)N[C@@H](CCCN)C(=O)N[C@@H](CO)C(=O)NCCCCCCCCCCCC(=O)O)NC(=O)[C@H](C(C)O)NC(=O)[C@H](CCO)NC(=O)[C@H](CC3CCCCC3)NC(=O)[C@H](CCN)NC(=O)[C@@H](CC(C)C)NC(=O)[C@H](CCCN)NC(=O)[C@H](CCCNC(N)=O)NC(=O)[C@H](Cc3ccc(-c4ccccc4)cc3)NC(=O)[C@H](C(C)C)NC2=O)c1` (stereo partly drawn) [Compound 3582] ({CH2CO}-[Lys(Me2)]Y(Carboxymethyl)D[Phe(3-Me)]V[Bip][Cit][Orn][dL][Dab][Cha][hSer][Thr(3ξ)]C[Orn]S[12Ado]-OH; thioether N-14) belongs 71 nM; to `CC(C)C[C@H]1NC(=O)[C@H](CCCN)NC(=O)[C@H](C(C)C)NC(=O)[C@H](Cc2ccc(-c3ccccc3)cc2)NC(=O)[C@H](C(C)C)NC(=O)[C@H](Cc2c[nH]c3ccccc23)NC(=O)[C@H](CC(=O)O)NC(=O)[C@H](Cc2ccc(OCC(=O)O)cc2)NC(=O)[C@H](Cc2ccncc2)NC(=O)CSC[C@@H](C(=O)NCC(=O)NCCOCCOCC(=O)N[C@@H](CCCN)C(=O)NCCCCCCCCCCC(=O)O)NC(=O)[C@H](CCCNC(N)=O)NC(=O)[C@H](C(C)C)NC(=O)[C@H](CC2CCCCC2)NC(=O)[C@H](CCN)NC1=O` [Compound 3235] ({CH2CO}-[4Pal]Y(Carboxymethyl)DWV[Bip]V[Orn][dL][Dab][Cha]V[Cit]CG[AEEA][Orn][Aun]-OH; thioether N-14), 5.7 nM; to `Cc1cccc(C[C@@H]2NC(=O)[C@H](CC(=O)O)NC(=O)[C@H](Cc3ccc(OCC(=O)O)cc3)NC(=O)[C@H](CN)NC(=O)CSC[C@@H](C(=O)N[C@@H](C)C(=O)N[C@@H](CN)C(=O)NCC(=O)NCCCCCCCCCCC(=O)O)NC(=O)[C@H]([C@@H](C)O)NC(=O)[C@H](C(C)C)NC(=O)[C@H](CC3CCCCC3)NC(=O)[C@H](CCN)NC(=O)[C@@H](CC(C)C)NC(=O)[C@H](CCCN)NC(=O)[C@H](CCCNC(N)=O)NC(=O)[C@H](Cc3ccc(-c4ccccc4)cc3)NC(=O)[C@H](C(C)C)NC2=O)c1` [Compound 1053] ({CH2CO}-[Dap]Y(Carboxymethyl)D[Phe(3-Me)]V[Bip][Cit][Orn][dL][Dab][Cha]VTCA[Dap]G[Aun]-OH; thioether N-14), 8.9 nM.

For the compound `Cc1cccc(C[C@@H]2NC(=O)[C@H](CC(=O)O)NC(=O)[C@H](Cc3ccc(OCC(=O)O)cc3)NC(=O)[C@H](Cc3ccc(C(N)=O)cc3)NC(=O)CSC[C@@H](C(=O)N[C@@H](CCN)C(=O)NCCCCCCCCCCC(=O)O)NC(=O)[C@H](CO)NC(=O)[C@H](C(C)(C)O)NC(=O)[C@H](CC3CCCCC3)NC(=O)[C@H](CCN)NC(=O)[C@@H](CC(C)C)NC(=O)[C@H](CCCN)NC(=O)[C@H](Cc3ccc(OCC(=O)O)cc3)NC(=O)[C@H](Cc3ccc(-c4ccccc4)cc3)NC(=O)[C@H](Cc3ccc(OCC(=O)O)cc3)NC2=O)c1` [Compound 2218] ({CH2CO}-[Phe(4-CONH2)]Y(Carboxymethyl)D[Phe(3-Me)]Y(Carboxymethyl)[Bip]Y(Carboxymethyl)[Orn][dL][Dab][Cha][Val(3-OH)]SC[Dab][Aun]-OH; thioether N-14), the IC50 turned out to be 7.1 nM.
